Source: patent US12035716B2, “Treatment for seeds disinfection” (VILMORIN & CIE, priority 2013, dated 2024)
Read-outs that look alike come from different tables or passages of the source.

Key:
[1] = tested on: CGMMV; settings: watermelon seeds; vacuum infiltration 0.2% solution, 40 minutes, sinking fraction; 2000 seeds
[2] = tested on: CGMMV
Protocol: Samples of two commercial cucumber seed lots naturally infected by CGMMV in the production field were treated by standard disinfection or by vacuum infiltration methods. All treatments were done on 1500 seed in 300 ml solution for 40 minutes, followed by 40 minutes wash under running water. For the standard disinfection we used 2.5% Na-Dichloroisocyanurate solution and for the vacuum infiltration we used a solution containing 1.5% Na-Dichloroisocyanurate. The vacuum/de vacuum cycles were applied gradually starting at 500 mbar and increased by 100 mbar each cycle up to the maximum of 985 mbar. Then we continued vacuum/de-vacuum cycles at maximum vacuum pressure of 985 mbar for a total of 30 cycles. At the end of the treatment the floating seeds were discarded and the heavy fraction was collected, washed and dried for testing.
(§1) CGMMV was tested by ELISA assay according to method 7-026 of the international rules for seed testing annex to chapter 7: seed health testing methods; International Seed Testing Association, Zurich, Switzerland, 2010. The germination test was performed on petri dishes (TOP) at 24 C incubator and root protrusion was counted at 4 days after seeding (TOP at 4 d).

[3] = tested on: cucumber seeds
Protocol: The germination test was performed according to Annex to chapter 5, International Rules for Seed Testing, International Seed Testing Association, Zurich, Switzerland, 1996.

[4] = tested on: melon seeds; settings: vacuum infiltration 0.5%
[5] = tested on: CGMMV; remark: listed apart in the source
Protocol: In this case, cucumber seeds have been obtained from a commercial seed lot, naturally infected by CGMMV in the production field.
The seeds were disinfected by standard method and by vacuum infiltration method. In this case, vacuum is applied at maximal pressure of 975-985 mbar from the beginning. […] The vacuum cycles continue until floating seeds are no longer sinking. The floating seeds are then removed and discarded. This process takes 15-20 minutes.
In this case two chemicals were used.
We also tested the effect of different concentration of Na-Dichloroisocyanurate applied by vacuum infiltration on CGMMV and germination (table II) treatment E is untreated control; treatment F is vacuum infiltration of Na-Dichloroisocyanurate 0.75%; treatment G is vacuum infiltration of Na-Dichloroisocyanurate 1.5% and treatment H is vacuum infiltration of Na-Dich loroisocyanurate 2.0%.
CGMMV was tested by ELISA assay according to method 7-026 of the international rules for seed testing annex to chapter 7: seed health testing methods; International Seed Testing Association, Zurich, Switzerland, 2010.

[6] = tested on: Acidovorax citrulli; settings: watermelon seeds
Source text: (§2) The vacuum cycles continue until floating seeds are no longer sinking. The floating seeds are then removed and discarded.

[7] = tested on: Acidovorax citrulli; settings: for BFB by PCR method: melon, 1.0% solution, 30 vacuum cycles, sinking fraction, 5000 seeds
Protocol: The process: 10 kg of seed are added to 45 liters of 1% or 2% Na-Dichloroisocyanurate. The seeds are mixed in the solution for 30 minutes and then washed in running water for 10 minutes and then dried to the original water content.
Three batches of 1 kilograms of this seed lot were put in a 10 liter glass vessel together with 3.0 liters of disinfecting solution comprising of Na-Dichloroisocyanurate at 1.0%. Thirty cycles of vacuum/de-vacuum (each cycle having a duration of 1 to 1.5 minutes) were applied with three different level: (i) level A: full vacuum up to 975-985, (ii) level B: medium level of 740-816 mbar, and (iii) level C: low level of 576-667 mbar. After 40 minutes (i.e. after achieving the 30 cycles of vacuum/de-vacuum) the floating fractions were discarded and the sinking fractions were collected, washed for 40 minutes and dried.
The standard protocol can be obtained from the National Seed Health System, a program authorized by USDA-APHIS and administered by the Iowa State University Seed Science Center to accredit both private and public entities to perform certain activities needed to support the issuance of Federal phytosanitary certificates for the international movement of seed. See page 69 of the May 2014 edition of the “Vegetable Crop Method-Reference Manual B” National Seed Health System available at http://www.seedhealth.org/files/pdfVegetable_Crops.pdf.

[8] = tested on: cucumber seeds; remark: listed apart in the source
Protocol: as §1

[9] = tested on: Acidovorax citrulli; settings: melon seeds
Source text: as §2
The standard protocol can be obtained from the National Seed Health System, a program authorized by USDA-APHIS and administered by the Iowa State University Seed Science Center to accredit both private and public entities to perform certain activities needed to support the issuance of Federal phytosanitary certificates for the international movement of seed.

[10] = tested on: cucumber seeds; settings: 1.33% solution, VI disinfection, untreated 97
Protocol: The germination test was performed on petri dishes (TOP) at 24 C incubator and root protrusion was counted at 4 days after seeding (TOP at 4 d).

[11] = seed lot A, VI disinfection 1.5%, heavy fraction
[12] = seed lot A, standard disinfection 2.5%
[13] = seed lot B, VI disinfection 1.5%, heavy fraction
[14] = seed lot B, standard disinfection 2.5%

O=c1nc([O-])n(Cl)c(=O)n1Cl.[Na+] [Na-Dichloroisocyanurate]
CGMMV by ELISA assay [1]: negative
ELISA 10 replicates results, Positive/total [2, 11]: 0/10
Remarks (seed health) [2, 11]: Clean
ELISA 10 replicates results, Average count ([2]; seed lot A, VI disinfection 1.5%, heavy fraction, cut-off 0.148, untreated 0.693): 0.072
ELISA 10 replicates results, Positive/total [2, 12]: 9/10
Remarks (seed health) [2, 12]: Contaminated
ELISA 10 replicates results, Average count ([2]; seed lot A, standard disinfection 2.5%, cut-off 0.174, untreated 0.693): 0.238
ELISA 10 replicates results, Positive/total [2, 13]: 0/10
Remarks (seed health) [2, 13]: Clean
ELISA 10 replicates results, Average count ([2]; seed lot B, VI disinfection 1.5%, heavy fraction, cut-off 0.148, untreated 0.737): 0.075
ELISA 10 replicates results, Positive/total [2, 14]: 4/10
Remarks (seed health) [2, 14]: Contaminated
ELISA 10 replicates results, Average count ([2]; seed lot B, standard disinfection 2.5%, cut-off 0.156, untreated 0.737): 0.177
Germination % ([3]; Na-Dichloroisocyanurate 0.4%, standard disinfection): 96%
Germination % ([3]; Na-Dichloroisocyanurate 0.4%, vacuum infiltration): 100%
Germination % ([3]; Na-Dichloroisocyanurate 0.75%, vacuum infiltration): 100%
Germination % ([3]; Na-Dichloroisocyanurate 1.5%, vacuum infiltration): 100%
Germination % ([3]; Na-Dichloroisocyanurate 2.0%, vacuum infiltration): 100%
Germination ([4]; floating fraction, counted at 4 days): 96%
Germination ([4]; floating fraction, counted at 7 days): 92%
Germination ([4]; heavy fraction, counted at 4 days): 99%
Germination ([4]; heavy fraction, counted at 7 days): 99%
ELISA assay result (rate of extinction at A405) ([5]; Na-Dichloroisocyanurate 0.4%, standard disinfection, negative control 0.13): 0.45
ELISA assay result (rate of extinction at A405) ([5]; Na-Dichloroisocyanurate 0.4%, vacuum infiltration, negative control 0.13): 0.25
ELISA assay result (rate of extinction at A405) ([5]; Na-Dichloroisocyanurate 0.75%, vacuum infiltration, untreated control 0.72, negative control 0.13): 0.17
ELISA assay result (rate of extinction at A405) ([5]; Na-Dichloroisocyanurate 1.5%, vacuum infiltration, untreated control 0.72, negative control 0.13): 0.13
ELISA assay result (rate of extinction at A405) ([5]; Na-Dichloroisocyanurate 2.0%, vacuum infiltration, untreated control 0.72, negative control 0.13): 0.16
BFB infection after standard disinfection ([6]; standard disinfection process, 1.0% Na-Dichloroisocyanurate): still infected
BFB by sweat box assay ([6]; vacuum infiltration, 0.2% solution, sinking fraction, 4200 seeds tested): negative
BFB infection after standard disinfection ([7]; melon seeds, disinfected twice by standard protocol of example 5 (1% or 2%, 30 minutes)): still found to be BFB infected
BFB by PCR method ([7]; level A full vacuum up to 975-985): negative
BFB by PCR method ([7]; level B 740-816 mbar): negative
BFB by PCR method ([7]; level C 576-667 mbar): negative
% Germination TOP at 4 d [8, 11]: 100%
% Germination TOP at 4 d [8, 12]: 100%
% Germination TOP at 4 d [8, 13]: 100%
% Germination TOP at 4 d [8, 14]: 100%
BFB infection after standard disinfection ([9]; disinfected twice by standard protocol, 1% and 2%, 10 min): still heavily infested
BFB by sweat-box assay ([9]; vacuum infiltration, 0.5% solution, floating fraction, 10,000 seeds): positive
BFB health test (PCR, seedling grow-out, sweat box) ([9]; vacuum infiltration, 0.5% solution, sinking fraction, 40,000 seeds tested): None of the seeds was found infected
% Germination TOP at 4 d ([10]; floating fraction (5%)): 62%
% Germination TOP at 4 d ([10]; sinking fraction (95%)): 94%
